Test results published in patent publication US7625892B2, “Pharmaceutical compositions for the treatment of diseases related to neurotrophines” (Mimetech S.r.l., priority 2002, dated 2009).
Read-outs that look alike come from different tables or passages of the source.

Key:
[1] = system: VGF; test: Induction of VGF production by PC12 cells (western blot); type: cell-based; details: FIG. 3
Description: The ability of 3-aza-bicyclo(3.2.1)octanes of formula (I) and their dimeric forms of formula (II) and (III) with substitution reported in Table 1-4 was tested also as ability to induce VGF production by PC12 cells. […] Cells were lysed in 0.25% NP-40 in PBS supplemented with 1 mM PMSF (phenyl-methyl) and 1 mM leupeptin and protein concentration was measured in each sample by Bradford assay. Equal amounts of proteins (30 μg) were loaded in 8% SDS-polyacrilamide gel, electrophoresed, blotted onto nitrocellulose membrane and stained with monoclonal antibodies anti-VGF followed by peroxidase-conjugated anti-mouse IgG. Reaction was visualized by Enhanced Chemiluminiscent Reagent (ECL, Amersham) following the manufacturer instruction.
VGF is induced by the selected compounds as well as by hrNGF.

[2] = system: NGF specific surface receptor on PC12 cells; test: Displacement of 125I-NGF binding to PC12 cells; details: 0.1 nM 125I-NGF
Description: The ability of selected compounds to displace the binding of NGF to specific surface receptor was evaluated through the classic binding techniques of iodinated ligand.
PC12 cells were detached from tissue flasks with PBS-EDTA, washed with HKR medium (10 mM Hepes, 125 mM NaCl, 4.8 mM KCl, 1.3 mM CaCl2, 1.2 mM MgSO4, 1.2 mM KH2PO4, 1 g/l glucose, 1 g/l BSA) and incubated in triplicate in HKR medium with 0.1 nM ^125I-NGF in the presence or absence of variable concentrations of the compounds to be assayed or of hrNGF as internal standard. Displacement curve was obtained by analyzing the resultant cell bound radioactivity in the presence of the compounds or of hrNGF with adequate software (Graphit 4).

[3] = biological target: T1, Trk-A (Rattus norvegicus, UniProt P35739); test: Trk-A autophosphorylation in PC12 cells; type: cell-based; details: 10 μM compound, 30 min, FIG. 5
T1 construct: endogenous in cells; host or cells: PC12 cells
T1 sequence (P35739 33-799): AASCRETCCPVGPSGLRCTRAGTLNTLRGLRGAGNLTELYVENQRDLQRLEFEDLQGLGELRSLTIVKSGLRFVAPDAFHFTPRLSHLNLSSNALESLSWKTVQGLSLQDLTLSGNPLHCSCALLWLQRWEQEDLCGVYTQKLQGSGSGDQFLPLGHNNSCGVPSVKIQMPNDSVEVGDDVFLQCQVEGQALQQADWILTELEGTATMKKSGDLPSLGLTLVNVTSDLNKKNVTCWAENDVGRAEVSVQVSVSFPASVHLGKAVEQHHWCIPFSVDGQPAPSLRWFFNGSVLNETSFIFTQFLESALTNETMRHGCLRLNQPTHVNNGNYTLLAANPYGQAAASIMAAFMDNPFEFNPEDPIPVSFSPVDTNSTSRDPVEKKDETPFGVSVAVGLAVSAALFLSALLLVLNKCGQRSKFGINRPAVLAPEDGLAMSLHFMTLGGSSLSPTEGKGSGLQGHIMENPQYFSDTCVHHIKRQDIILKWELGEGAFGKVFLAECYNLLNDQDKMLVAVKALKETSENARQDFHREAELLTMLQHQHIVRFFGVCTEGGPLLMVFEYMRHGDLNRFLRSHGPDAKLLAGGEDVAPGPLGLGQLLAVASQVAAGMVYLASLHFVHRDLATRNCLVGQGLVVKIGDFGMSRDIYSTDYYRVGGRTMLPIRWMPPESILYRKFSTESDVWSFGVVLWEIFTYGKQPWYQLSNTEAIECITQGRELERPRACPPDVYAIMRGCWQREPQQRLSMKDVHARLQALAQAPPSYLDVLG
Description: To evaluate the ability of the compounds 3-aza-bicyclo(3.2.1)octanes of formula (I) and their dimeric forms of formula (II) and (III) reported in Table 14 to induce Trk-A autophosphorylation, PC12 cells were cultured in medium supplemented with 5% FBS for 48 hours, washed and equilibrated in serum-free medium for 2 hours. 2.5×10^6 cells were then stimulated with 10 μM of selected compounds for 30 min or with 10 nM hrNGF as positive control. Cells were then lysed with 0.5% Triton-X100 in PBS supplemented with protease inhibitors (PMSF, aprotinin, pepstatin, leupeptin) and phosphatase inhibitors. Protein concentrations in each sample was evaluated by Bradford assay and equal amounts (50 μg) of proteins were loaded onto SDS-polyacrilamide gel, electrophoresed and blotted onto nitrocellulose membrane. Membranes was stained with rabbit anti-(Tyr 490 and Tyr 674/675) phosphorylated Trk-A (Cell Signaling Technology) used at the final dilution of 1:1000. After washing, membranes were stained with HRP-conjugated anti-rabbit IgG and the reaction was visualised by using ECL reagents following manufacturing instructions.

induction of Trk-A autophosphorylation [3]	Compound	VGF production induced ([1]; 10 nM hrNGF)	Kd ([2]; FIG. 4b, read-out: Kd (displacement curve, hrNGF as competitor))	VGF production induced ([1]; 10 μM compound)	Kd ([2]; FIG. 4a, read-out: Kd (displacement curve, compound used as competitor))
–	hrNGF: human recombinant (hr)NGF used as internal standard	induced	0.114 nM	–	–
able to induce Trk-A autophosphorylation	COC(=O)C1OC2OC1C(=O)N(Cc1ccccc1)C2Cc1ccccc1 (centres unmarked) [Compound 9]	–	–	induced	165 nM
